Experimental data as given in patent publication US20130252843A1, “METHOD OF MAKING AND USING FLUORESCENT-TAGGED NANOPARTICLES AND MICROARRAYS” (THE STATE OF OREGON ACTING BY AND THROUGH THE STATE BOARD …, priority 2010, published 2013).
Where “and” joins values, the source holds several entries; their conditions need not be identical. Equal entries are not always repeated. Where two headings read alike, the source gives them in different places.

Tests used:
[1] = biological target: CVN-M (Nostoc ellipsosporum, UniProt P81180, E41A/N42A/T57A/R76A/Q78G)
[2] = biological target: T1, Con A (Canavalia ensiformis, UniProt P02866)
T1 construct: purchased Sigma-Aldrich Type IV (catalogue number not given)

[3] = biological target: CVN-Q (Nostoc ellipsosporum, UniProt P81180, Q50C)
[4] = biological target: blindly prepared lectins (U1-U7) (Glycine max, UniProt P05046); type: binding; parameters: unit not given here
Description: (§1) The unspecific binding sites of Sugar coupled Au-PFPA was inhibited by the addition of BSA (3% BSA, 0.2% Tween in PBS buffer pH 7). The 1,500 μL of sugar-coupled Au-PFPA was centrifuged at 9,000 rpm for 8 minutes and was redissolved in a PBS buffer with 3% BSA (0.2% Tween). The volume was made up to 900 μL. The resultant solution was incubated at room temperature with gentle shaking for 1 hour. The BSA blocked Au-PFPA-sugar nanoparticle was centrifuged at 10,000 rpm for 6 minutes and the excess BSA was removed. To a volume of 1,500 μL solution 10 mg/mL lectin (Con A—Concanavalin A, Canavalia ensiformis jack bean protein, SBA—soybean agglutinin, Glycine max and PNA—Peanut Agglutinin, Arachis hypogaea all purchased from Sigma Aldrich) was introduced the resultant solution was incubated at room temperature while gently shaking.
(§2) To test the training matrix and its strength to identify individual lectins, seven blindly prepared lectins (U1-U7) were used as test samples. The procedure for each test sample is the same as that used for the known samples used in the training matrix. The final SPR shift (Table 14) was used in the training matrix (Table 10) for prediction.

[5] = biological target: T2, ConA-FSNPs (Canavalia ensiformis, UniProt P02866); test: Carbohydrate microarray incubated with ConA-FSNPs, fluorescence imaging; type: binding; conditions: PS coating; ConA-FSNPs 0.5 mg/ml
T2 construct: purchased Sigma-Aldrich Type IV
Description: This example concerns the fabrication of carbohydrate microarrays. […] The slides were then reacted with PAAm-4-PFPA solution at 50° C. for 5 hours, and sonicated twice in H2O for 5 minutes each time. Solutions of carbohydrates were prepared in H2O. […] The slides were dried under oil pump for 1 hour. A solution of PS or PEO in CHCl3 (5 mg/ml) was spinning-coated on the slides. The Slides were then covered with a 280-nm long-path optical filter (WG-280, Schott Glass), irradiated with a 450-W medium pressure Hg lamp (Hanovia) for 9 min, sonicated 5 min in CHCl3 and 5 minutes in H2O.
This example concerns microarray assay and fluorescence imaging. Carbohydrate microarrays were incubated in a 0.5 mg/ml solution of ConA-FSNPs in HEPES (pH 7.5, 1 mM CaCl2, 1 mM MnCl2) for 1 hour, rinsed with HEPES buffer 3 times and dried. The slides were scanned using a Genepix 4000B microarray scanner at excitation of 532 nm. Image analysis was carried out with Axon Genepix Pro 5.1 analysis software (Molecular Devices Corporation, Union City, Calif.).
FIG. 52 provides the fluorescence images of carbohydrate microarrays with PS or PEO coating incubated with ConA-FSNPs at 0.5 mg/ml. […] However, for carbohydrate microarrays having a PEO coating, the signal from those “high-intensity” carbohydrate targets was negative (FIG. 53).

[6] = UV irradiation photostability; type: physicochemical; conditions: 450-W medium-pressure Hg lamp, 10 minutes; of the original value
Description: To confirm that the entrapped FITC would withstand the UV irradiation conditions used for a subsequent photocoupling reaction, a solution containing FITC-doped SNPs was irradiated with a 450-W medium-pressure Hg lamp for 10 minutes. […] See, FIG. 6. On the other hand, when the […] was irradiated under the same conditions, the fluorescent intensity was reduced to about 50% of the original value. See, FIG. 7.

[7] = biological target: T3, PNA, Peanut Agglutinin (Arachis hypogaea, UniProt P02872); conditions: cited from earlier work
T3 construct: purchased Sigma-Aldrich

[8] = biological target: RCA, Ricinus Communis Agglutinin I; conditions: cited from earlier work
[9] = biological target: DBA (Dolichos Biflorus Agglutinin) (Vigna unguiculata subsp. cylindrica, UniProt P05045); conditions: free glycan; cited from earlier work
[10] = biological target: T4, PNA (Arachis hypogaea, UniProt P02872); conditions: free glycan; cited from earlier work
T4 construct: purchased Sigma-Aldrich
T4 sequence (P02872 24-273): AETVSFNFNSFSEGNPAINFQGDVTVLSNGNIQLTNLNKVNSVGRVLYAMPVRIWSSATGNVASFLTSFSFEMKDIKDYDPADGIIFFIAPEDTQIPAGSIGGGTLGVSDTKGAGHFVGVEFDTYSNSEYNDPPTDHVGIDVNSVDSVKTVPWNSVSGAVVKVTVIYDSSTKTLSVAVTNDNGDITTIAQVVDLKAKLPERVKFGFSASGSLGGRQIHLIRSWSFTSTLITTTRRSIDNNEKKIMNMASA

[11] = biological target: SBA (Soybean Agglutinin) (Glycine max, UniProt P05046); conditions: free glycan; cited from earlier work
[12] = biological target: RCA (Ricinus Communis Agglutinin I) (Ricinus communis, UniProt P06750); conditions: free glycan; cited from earlier work
[13] = biological target: T4, PNA; test: Protein bio assay, SPR shift of sugar coupled Au-PFPA nanoparticles with lectin; type: binding; parameters: unit: nm; conditions: replicates
Excerpt: (§3) In other particular embodiments, the interactions between one or more targets and one or more PHPA-derived nanoparticle probes can be measured using absorbance spectroscopy. Particular embodiments concern using surface plasmon resonance. In these embodiments, both the λmax produced before the PHPA-derived nanoparticle probe interacts with the target and the λmax produced after the PHPA-derived nanoparticle probe interacts with the target are detected. The change in λmax provides a numerical number that can be used in further statistical analysis.
as §1
(§4) A training matrix was created using three lectins (Con A, SBA and PNA) and four types of sugar-bound Au-PFPA nanoparticles. Each assay was repeated three times, providing a 3×4×3 training matrix (Table 10). The factor scores (Zi from equation (1) or Fi) calculated for the training matrix from XLSTAT® were F1=98.10% and F2=1.90%.
(§5) A study was also done to identify different lectins using specific binding interaction between lectins and sugars (Wang, X.; Ramstrom, O.; Yan, M. J. Mat. Chem. 2009, 19, 8944-8949). The lectins used in the study were Con A, SBA, PNA and GSII. The sugars used were D-Mannose, D-Glucose, D-Galactose, α-1,4-mannobiose, α-1,3-galactobiose and N-acetyl-D-glucosamine. These sugars are known to have specific binding to lectins (Jurs, P. Science 1986, 232, 1219-1224). The training matrix was created as four lectins×six sugars×five replicates (Table 12). […] The Wilk's lamda (A) value for the training set was 0.000. […] The 95% confidence ellipses show clear spatial separation, and no overlap between the ellipses is visible. Unlike the weak binding interactions studied in before using non-specific binding sugars, the strong binding sugars show very good class separation.

[14] = biological target: T5, SBA (Glycine max, UniProt P05046); test: as above; type: binding; parameters: unit: nm; conditions: replicates
T5 construct: purchased Sigma-Aldrich
Excerpt: as §3, §1, §4, §5

[15] = biological target: blindly prepared lectins (U1-U7) (Canavalia ensiformis, UniProt P02866); type: binding; parameters: unit not given here
Description: as §1, §2

[16] = biological target: blindly prepared lectins (U1-U7) (Arachis hypogaea, UniProt P02872); type: binding; parameters: unit not given here; conditions: unknown protein u5 (predicted class PNA)
Description: as §1, §2

[17] = biological target: T1, Con A; test: Protein bio assay, SPR shift of sugar coupled Au-PFPA nanoparticles with lectin; type: binding; parameters: unit: nm; conditions: replicates
Excerpt: as §3
as §1, with “shaking. […]” for “shaking.”

[18] = free glycan; cited from earlier work
[19] = free glycan, solution; cited from earlier work
[20] = Domain A; cited from earlier work
[21] = Domain B; cited from earlier work
[22] = unknown protein u1 (predicted class SBA)
[23] = unknown protein u7 (predicted class SBA)
[24] = unknown protein u3 (predicted class Con A)
[25] = unknown protein u4 (predicted class Con A)
[26] = unknown protein u2 (predicted class SBA)
[27] = unknown protein u6 (predicted class SBA)

OC[C@H]1O[C@H](O[C@@H]2[C@@H](O[C@@H]3C(O)O[C@H](CO)[C@@H](O)[C@@H]3O)O[C@H](CO)[C@@H](O)[C@@H]2O)[C@@H](O)[C@@H](O)[C@@H]1O (stereo partly drawn) [2α, 2α-Man3, α-1,2-α-1,2-mannotriose]
Kd ([1]; data in brackets, free ligand; read-out: dissociation constant of the free ligand with CVN-M; cited from earlier work): 3.4 µM
Association constant Ka with CVN-M [1, 18]: 294000 M⁻¹
Association constant Ka with CVN-M ([1]; free glycan; listed as 2α,2α-Man3; cited from earlier work): 294000 M⁻¹
Kd ([2]; data in brackets, free ligand; read-out: dissociation constant of the free ligand with Con A; cited from earlier work): 2.97 µM
Association constant Ka with Con A [2, 19]: 379000 M⁻¹
Association constant Ka with Con A ([2]; free glycan, solution; listed as 2α,2α-Man3; cited from earlier work): 379000 M⁻¹
Association constant Ka with CVN-Q [3, 20]: 2.94 × 10^5 (Domain A); M^−1
Association constant Ka with CVN-Q [3, 21]: 2.33 × 10^4 (Domain B) M^−1
Kd ([3]; data in brackets, free ligand; read-out: dissociation constant of the free ligand with CVN-Q; cited from earlier work): 15.5 µM

O=C[C@H](O)[C@@H](O)[C@H](O[C@@H]1O[C@H](CO)[C@@H](O)[C@H](O)[C@H]1O)[C@H](O)CO [Cellobiose]
Unknown SPR shift, weak binders [4, 22]: 2.1
Unknown SPR shift, weak binders [4, 23]: 2.1

OC[C@H]1O[C@H](O[C@@H]2C(O)O[C@H](CO)[C@@H](O)[C@@H]2O)[C@@H](O)[C@@H](O)[C@@H]1O (stereo partly drawn) [Compound 2α-Man2, 2-O-α-D-Mannopyranosyl-D-mannopyranose]
Association constant Ka with CVN-M [1, 18]: 1320 M⁻¹
Kd ([1]; read-out: dissociation constant of the free ligand with CVN-M; data in brackets, free ligand; cited from earlier work): 757 µM
Association constant Ka with Con A [2, 19]: 41700 M⁻¹
Kd ([2]; read-out: dissociation constant of the free ligand with Con A; data in brackets, free ligand; cited from earlier work): 24 µM
Association constant Ka with CVN-Q [3, 20]: 1.43 × 10^3 (Domain A); M^−1
Association constant Ka with CVN-Q [3, 21]: 1.56 × 10^4 (Domain B) M^−1
Kd ([3]; read-out: dissociation constant of the free ligand with CVN-Q; data in brackets, free ligand; cited from earlier work): 89.8 µM
labeling intensity by ConA-FSNPs on carbohydrate microarray [5]: most intensely

O=C(O)c1cc(N=C=S)ccc1-c1c2ccc(=O)cc-2oc2cc(O)ccc12 [FITC, fluorescein isothiocyanate]
fluorescence intensity after UV irradiation [6]: about 50%

OC[C@H]1OC(O)[C@H](O)[C@@H](O)[C@H]1O (stereo partly drawn) [Gal, D-(+)-galactose]
Ka [7]: ~10^3 M^−1
Ka [8]: ~10^3 M^−1

CC(=O)N[C@H]1C(O)O[C@H](CO)[C@H](O)[C@@H]1O (stereo partly drawn) [GalNAc]
Association constant Ka with DBA [9]: 4200 M⁻¹
Association constant Ka with PNA [10]: 2430 M⁻¹
Association constant Ka with SBA [11]: 1.51e+06 M⁻¹
Association constant Ka with RCA [12]: 48400 M⁻¹

OC[C@H]1O[C@@H](O[C@H]2[C@H](O)[C@@H](O)[C@@H](O)O[C@@H]2CO)[C@H](O)[C@@H](O)[C@H]1O [Lac]
labeling intensity by ConA-FSNPs on carbohydrate microarray [5]: slightly less

Arabinose
SPR shift, training matrix [13]: 2.1 and 1.8 and 1.6
SPR shift, training matrix [14]: 5.1 and 5.9 and 4.5
Unknown SPR shift, weak binders [15, 24]: 1.1
Unknown SPR shift, weak binders [15, 25]: 1
Unknown SPR shift, weak binders [16]: 1.9
Unknown SPR shift, weak binders [4, 22]: 4.5
Unknown SPR shift, weak binders [4, 26]: 5
Unknown SPR shift, weak binders [4, 27]: 4.5
Unknown SPR shift, weak binders [4, 23]: 4.5
SPR shift, training matrix [17]: 1.9 and 0.8 and 1.1

Dextran
labeling intensity by ConA-FSNPs on carbohydrate microarray [5]: slightly less

Lactose
SPR shift, training matrix [13]: 3.7 and 2 and 2.4
SPR shift, training matrix [14]: 1.5 and 3.7 and 1.1
Unknown SPR shift, weak binders [15, 24]: 5.5
Unknown SPR shift, weak binders [15, 25]: 5.7
Unknown SPR shift, weak binders [16]: 2.5
Unknown SPR shift, weak binders [4, 22]: 1.6
Unknown SPR shift, weak binders [4, 26]: 1.1
Unknown SPR shift, weak binders [4, 27]: 1.6
Unknown SPR shift, weak binders [4, 23]: 1.1
SPR shift, training matrix [17]: 6.2 and 5.1 and 7.9
